Laboratory results reported in US20190054110A1, “MODULATORS OF CCR9 FOR TREATING TUMOR RESISTANCE TO IMMUNE RESPONSES” (DEUTSCHES KREBSFORSCHUNGSZENTRUM STIFTUNG DES ÖFFENTLICHEN …, priority 2016, published 2019).

Assays:
MCF7 cells = experiment: Chromium-release cytotoxicity assay, MCF7 cells lysed by survivin-specific T cells; assay type: cell-based, human; conditions: versus control / CCR9 knockdown
Description: FIG. 1: CCR9 knockdown sensitizes tumor cells to immune attack (A) MCF7 cells were transfected with the described siRNA sequences and harvested after 72 h for mRNA and protein estimation using RT-PCR (upper) and immunoblot (lower) analysis, respectively. GAPDH and beta-actin were used as controls for RNA and protein normalization, respectively. (B) Luc-CTL cytotoxicity assay with PBMC-derived CTLs and bi-specific Ab as effector population and MCF7 as target cells, which were transfected with individual (s1-s4) or pooled CCR9 siRNA sequences. PD-L1 and non-specific control siRNAs were used as positive and negative controls, respectively, for CTL-mediated cytotoxicity. (C, D) Cr-release assay showing % specific lysis of MCF7 cells by survivin-specific T cells at different ratios upon CCR9 knockdown (C) or overexpression (D). MCF7 cells were transfected with either CCR9 siRNA s1 (Δ), pooled siRNA sequences (◯), positive control PD-L1 (□), and non-specific control siRNA (▪) (C) or with pCMV6-AC-His control vector (▪) and pCMV6-AC-His-CCR9 expression construct (∘) (D) 72 h prior to the assay. […] Error bars denote ±SEM, and statistical significance was calculated using the unpaired, two-tailed Student's t-test. […]

CCR9+ tumor cells = experiment: Transwell migration assay of CCR9+ tumor cells toward CCL25; assay type: cell-based

pertussis toxin
MCF7 lysis by survivin-specific CTL (MCF7 cells): did not elicit elevated tumor lysis | migration of CCR9+ tumor cells toward CCL25 (CCR9+ tumor cells): inhibited
